According to ChEMBL document CHEMBL1201862, “PubChem BioAssay data set” (2004):
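Step 1: Grow cells in 96-well plates. Step 2: Expose to compound for 48 hours at 5 concentrations. Step 3: Interpolate endpoints linearly; if unreached, use highest concentration. Here, GI50 denotes the concentration required for 50% inhibition of growth.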 Calls of active or inactive are those of the source. Rule as the data show it: active = GI50 up to about 1.1 µM and inactive = higher.

Tests used:
Test in all cases: NCI tumour cell line growth inhibition, 48 h
SK-MEL-5 = system: SK-MEL-5
CAKI-1 = system: CAKI-1
SNB-19 = system: SNB-19
OVCAR-4 = system: OVCAR-4
EKVX = system: EKVX
COLO 205 = system: COLO 205
786-0 = system: 786-0
OVCAR-5 = system: OVCAR-5
A498 = system: A498
HCT-15 = system: HCT-15
SK-OV-3 = system: SK-OV-3
UACC-62 = system: UACC-62
SW-620 = system: SW-620
MDA-MB-435 = system: MDA-MB-435
RXF 393 = system: RXF 393
CCRF-CEM = system: CCRF-CEM
HOP-62 = system: HOP-62
Malme-3M = system: Malme-3M
Hs-578T = system: Hs-578T
UO-31 = system: UO-31

| SMILES | GI50 (SK-MEL-5) | GI50 (CAKI-1) | GI50 (SNB-19) | GI50 (OVCAR-4) | GI50 (EKVX) | GI50 (COLO 205) | GI50 (786-0) | GI50 (OVCAR-5) | GI50 (A498) | GI50 (HCT-15) | GI50 (SK-OV-3) | GI50 (UACC-62) | GI50 (SW-620) | GI50 (MDA-MB-435) | GI50 (RXF 393) | GI50 (CCRF-CEM) | GI50 (HOP-62) | GI50 (Malme-3M) | GI50 (Hs-578T) | GI50 (UO-31) |
| --- | --- | --- | --- | --- | --- | --- | --- | --- | --- | --- | --- | --- | --- | --- | --- | --- | --- | --- | --- | --- |
| CCCC(c1cc(C(C)(C)C)c(O)cc1C)c1cc(C(C)(C)C)c(O)cc1C | 1.77 µM (inactive) | 4.3 µM (inactive) | 4.99 µM (inactive) | 5.13 µM (inactive) | 2.88 µM (inactive) | 2.33 µM (inactive) | 2.31 µM (inactive) | 2.13 µM (inactive) | 2.05 µM (inactive) | 3.35 µM | 3.65 µM (inactive) | 2.09 µM (inactive) | 3.23 µM (inactive) | 2.59 µM (inactive) | 1.99 µM (inactive) | 2.71 µM (inactive) | 3.05 µM (inactive) | 3.05 µM (inactive) | 2.79 µM (inactive) | 3.33 µM (inactive) |
| N#C/C(=C/N1C(=O)/C(=C/c2ccc([N+](=O)[O-])cc2)SC1=S)c1nc2ccccc2s1 | 11.4 µM (inactive) | 30.8 µM (inactive) | 29.6 µM (inactive) | 29.7 µM (inactive) | 18.4 µM (inactive) | 14.5 µM (inactive) | 25.4 µM (inactive) | 29.1 µM (inactive) | 12.1 µM (inactive) | 21.6 µM | 15.9 µM (inactive) | 4.42 µM (inactive) | 34.8 µM (inactive) | 29.5 µM (inactive) | 19.3 µM (inactive) | 24.5 µM (inactive) | 0.406 µM (active) | 25.8 µM (inactive) | 29.6 µM (inactive) | 16.1 µM (inactive) |
| O=C(Nc1ccc(Cl)c(Cl)c1)C(=O)C(C1OC(=O)c2ccccc21)[N+](=O)[O-] (stereo not given) | > 100 µM (inactive) | > 100 µM (inactive) | > 100 µM (inactive) | > 100 µM (inactive) | > 100 µM (inactive) | > 100 µM (inactive) | > 100 µM (inactive) | > 100 µM (inactive) | > 100 µM (inactive) | > 100 µM | > 100 µM (inactive) | > 100 µM (inactive) | > 100 µM (inactive) | > 100 µM (inactive) | 95.1 µM (inactive) | > 100 µM (inactive) | > 100 µM (inactive) | > 100 µM (inactive) | > 100 µM (inactive) | > 100 µM (inactive) |
| O=C1C(Cl)=C(N2CCN(c3ccccn3)CC2)C(=O)c2ncccc21 | 2 µM (inactive) | 2.13 µM (inactive) | 12.5 µM (inactive) | 1.87 µM (inactive) | 11.9 µM (inactive) | 1.84 µM (inactive) | 1.63 µM (inactive) | 7.87 µM (inactive) | 11.3 µM (inactive) | 1.66 µM | 7 µM (inactive) | 2.45 µM (inactive) | 2.03 µM (inactive) | 1.69 µM (inactive) | 2.17 µM (inactive) | 0.745 µM (active) | 11.9 µM (inactive) | 1.75 µM (inactive) | 2.49 µM (inactive) | 1.77 µM (inactive) |
| C[C@H](CCc1nc(C#N)c(N)o1)[C@H]1CC[C@H]2[C@@H]3[C@@H](O)CC4C[C@@H](O)CC[C@]4(C)[C@H]3C[C@@H](O)[C@]12C (stereo not given in full) | 18.9 µM (inactive) | 30.5 µM (inactive) | 23.9 µM (inactive) | 1.99 µM (inactive) | 28.3 µM (inactive) | 18.2 µM (inactive) | 19.2 µM (inactive) | 23.3 µM (inactive) | 39.1 µM (inactive) | 48.3 µM | 37.5 µM (inactive) | 10.7 µM (inactive) | 23.5 µM (inactive) | 22 µM (inactive) | 16 µM (inactive) | 0.498 µM (active) | 26.5 µM (inactive) | 7.38 µM (inactive) | 20.5 µM (inactive) | 20.6 µM (inactive) |
| COc1ccc2c3c1OC1C(=O)C=CC4(O)C(C2)NCC[C@@]314 (stereo not given in full) | 4.16 µM (inactive) | 2.13 µM (inactive) | 5.55 µM (inactive) | 2.62 µM (inactive) | 2.3 µM (inactive) | 1.44 µM (inactive) | 1.58 µM (inactive) | 2.46 µM (inactive) | 3.29 µM (inactive) | 2.11 µM | 3.18 µM (inactive) | 3.44 µM (inactive) | 1.11 µM (active) | 1.4 µM (inactive) | 1.39 µM (inactive) | 0.574 µM (active) | 2.39 µM (inactive) | 0.964 µM (active) | 2.19 µM (inactive) | 2.1 µM (inactive) |
| O=C(c1ccc(Cl)c(Cl)c1)N(Cc1cccnc1)C(=S)N(Cc1cccnc1)C(=O)c1ccc(Cl)c(Cl)c1 | 27.7 µM (inactive) | 31.6 µM (inactive) | 27.9 µM (inactive) | 25.8 µM (inactive) | 40.6 µM (inactive) | 15.6 µM (inactive) | 20.4 µM (inactive) | 29.2 µM (inactive) | 33.9 µM (inactive) | 20 µM | > 100 µM (inactive) | 50.7 µM (inactive) | 29.2 µM (inactive) | 62.5 µM (inactive) | 28.4 µM (inactive) | 94 µM (inactive) | 27.4 µM (inactive) | 52.8 µM (inactive) | 40.6 µM (inactive) | 17.9 µM (inactive) |
| O=C1CC(c2ccco2)C2(C(=O)NC(=O)NC2=O)C(c2ccco2)C1 (stereo not given) | > 75 µM (inactive) | > 75 µM (inactive) | > 75 µM (inactive) | > 75 µM (inactive) | > 75 µM (inactive) | > 75 µM (inactive) | > 75 µM (inactive) | > 75 µM (inactive) | > 75 µM (inactive) | > 75 µM | > 75 µM (inactive) | > 75 µM (inactive) | > 75 µM (inactive) | > 75 µM (inactive) | > 75 µM (inactive) | > 75 µM (inactive) | > 75 µM (inactive) | > 75 µM (inactive) | > 75 µM (inactive) | > 75 µM (inactive) |
| CC(C)(C)OC(=O)NCC(CNC(=O)OC(C)(C)C)c1nc(C(N)=O)cs1 | > 100 µM (inactive) | > 100 µM (inactive) | > 100 µM (inactive) | > 100 µM (inactive) | > 100 µM (inactive) | > 100 µM (inactive) | > 100 µM (inactive) | > 100 µM (inactive) | > 100 µM (inactive) | > 100 µM | > 100 µM (inactive) | > 100 µM (inactive) | > 100 µM (inactive) | > 100 µM (inactive) | > 100 µM (inactive) | > 100 µM (inactive) | > 100 µM (inactive) | > 100 µM (inactive) | > 100 µM (inactive) | > 100 µM (inactive) |
| C[C@H]1C=C2[C@@H]3CC(C)(C(=O)O)CC[C@]3(C)CC[C@]2(C)[C@]2(C)CC[C@H]3C(C)(C)[C@@H](OC(=O)c4cccc5c(=O)c6ccccc6[nH]c45)CC[C@]3(C)[C@@H]12 (stereo not given in full) | 34.4 µM (inactive) | > 100 µM (inactive) | > 100 µM (inactive) | 80.4 µM (inactive) | > 100 µM (inactive) | 58.1 µM (inactive) | > 100 µM (inactive) | > 100 µM (inactive) | 79.1 µM (inactive) | > 100 µM | > 100 µM (inactive) | 43.3 µM (inactive) | > 100 µM (inactive) | 41.8 µM (inactive) | > 100 µM (inactive) | 38 µM (inactive) | > 100 µM (inactive) | 66.8 µM (inactive) | > 100 µM (inactive) | 70 µM (inactive) |
| COC(=O)c1c(O)ccc2c1c1cc3ccccc3cc1n2Cc1cc(OC)cc(OC)c1 | 1.34 µM (inactive) | 2.18 µM (inactive) | 5.82 µM (inactive) | 9.84 µM (inactive) | 6.3 µM (inactive) | 10.1 µM (inactive) | 3.55 µM (inactive) | 9.64 µM (inactive) | 9.02 µM (inactive) | 1.46 µM | 1.43 µM (inactive) | 3.13 µM (inactive) | 3.61 µM (inactive) | 0.321 µM (active) | 3.96 µM (inactive) | 1.66 µM (inactive) | 3.23 µM (inactive) | 1.22 µM (inactive) | 2.45 µM (inactive) | 3.17 µM (inactive) |
| COc1ncc(C#CC(=O)c2ccccc2)c(OC)n1 | 2.09 µM (inactive) | 2.76 µM (inactive) | 15.8 µM (inactive) | 4.7 µM (inactive) | 3.51 µM (inactive) | 1.99 µM (inactive) | 2.04 µM (inactive) | 5.04 µM (inactive) | 17.9 µM (inactive) | 1.37 µM | 19.7 µM (inactive) | 4.03 µM (inactive) | 1.63 µM (inactive) | 3.91 µM (inactive) | 1.85 µM (inactive) | 0.183 µM (active) | 19.3 µM (inactive) | 1.67 µM (inactive) | 24.5 µM (inactive) | 2.03 µM (inactive) |
| O=C(O)C1=NN(c2ccc(S(=O)(=O)O)cc2)C2(C1)SCC(=O)N2c1nc2ccccc2s1 (stereo not given) | > 100 µM (inactive) | > 100 µM (inactive) | > 100 µM (inactive) | > 100 µM (inactive) | > 100 µM (inactive) | > 100 µM (inactive) | > 100 µM (inactive) | > 100 µM (inactive) | > 100 µM (inactive) | > 100 µM | > 100 µM (inactive) | > 100 µM (inactive) | > 100 µM (inactive) | > 100 µM (inactive) | > 100 µM (inactive) | > 100 µM (inactive) | > 100 µM (inactive) | > 100 µM (inactive) | > 100 µM (inactive) | > 100 µM (inactive) |
| Cc1cc(=O)oc2cc(OC(=O)N(CCCl)CCCl)ccc12 | > 100 µM (inactive) | > 100 µM (inactive) | > 100 µM (inactive) | > 100 µM (inactive) | > 100 µM (inactive) | > 100 µM (inactive) | > 100 µM (inactive) | > 100 µM (inactive) | > 100 µM (inactive) | 77.6 µM | > 100 µM (inactive) | 29.4 µM (inactive) | > 100 µM (inactive) | > 100 µM (inactive) | > 100 µM (inactive) | 90.4 µM (inactive) | > 100 µM (inactive) | > 100 µM (inactive) | > 100 µM (inactive) | > 100 µM (inactive) |
